Data reported in ChEMBL document CHEMBL5291721, “A preclinical secondary pharmacology resource illuminates target-adverse drug reaction associations of marketed drugs” (Nat Commun, 2023).

Columns and labels:
Acetylcholinesterase = Acetylcholinesterase (Homo sapiens, UniProt P22303); assay type: functional
Adenosine receptor A1 = target: T1, Adenosine receptor A1 (Homo sapiens, UniProt P30542)
T1 sequence (P30542 whole entry): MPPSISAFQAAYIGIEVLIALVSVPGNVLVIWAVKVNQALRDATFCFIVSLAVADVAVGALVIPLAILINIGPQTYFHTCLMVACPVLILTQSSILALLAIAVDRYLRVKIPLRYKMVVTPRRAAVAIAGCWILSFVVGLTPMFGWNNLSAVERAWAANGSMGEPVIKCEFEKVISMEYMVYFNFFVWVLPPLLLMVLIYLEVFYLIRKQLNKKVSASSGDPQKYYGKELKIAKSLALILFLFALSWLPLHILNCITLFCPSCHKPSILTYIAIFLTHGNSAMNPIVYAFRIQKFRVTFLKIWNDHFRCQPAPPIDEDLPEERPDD

Adenosine receptor A3 = target: T2, Adenosine receptor A3 (Homo sapiens, UniProt P0DMS8)
T2 sequence (P0DMS8 whole entry): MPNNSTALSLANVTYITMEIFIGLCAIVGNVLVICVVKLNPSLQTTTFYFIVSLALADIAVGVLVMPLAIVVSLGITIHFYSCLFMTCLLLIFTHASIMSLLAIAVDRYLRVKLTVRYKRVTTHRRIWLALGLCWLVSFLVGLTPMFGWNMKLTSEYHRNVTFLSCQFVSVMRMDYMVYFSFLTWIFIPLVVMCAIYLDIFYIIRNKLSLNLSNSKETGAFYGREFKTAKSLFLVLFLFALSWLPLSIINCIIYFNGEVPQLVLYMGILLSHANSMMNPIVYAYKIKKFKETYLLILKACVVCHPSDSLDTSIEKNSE

Estrogen receptor = target: T3, Estrogen receptor (Homo sapiens, UniProt P03372)
T3 sequence (P03372 whole entry): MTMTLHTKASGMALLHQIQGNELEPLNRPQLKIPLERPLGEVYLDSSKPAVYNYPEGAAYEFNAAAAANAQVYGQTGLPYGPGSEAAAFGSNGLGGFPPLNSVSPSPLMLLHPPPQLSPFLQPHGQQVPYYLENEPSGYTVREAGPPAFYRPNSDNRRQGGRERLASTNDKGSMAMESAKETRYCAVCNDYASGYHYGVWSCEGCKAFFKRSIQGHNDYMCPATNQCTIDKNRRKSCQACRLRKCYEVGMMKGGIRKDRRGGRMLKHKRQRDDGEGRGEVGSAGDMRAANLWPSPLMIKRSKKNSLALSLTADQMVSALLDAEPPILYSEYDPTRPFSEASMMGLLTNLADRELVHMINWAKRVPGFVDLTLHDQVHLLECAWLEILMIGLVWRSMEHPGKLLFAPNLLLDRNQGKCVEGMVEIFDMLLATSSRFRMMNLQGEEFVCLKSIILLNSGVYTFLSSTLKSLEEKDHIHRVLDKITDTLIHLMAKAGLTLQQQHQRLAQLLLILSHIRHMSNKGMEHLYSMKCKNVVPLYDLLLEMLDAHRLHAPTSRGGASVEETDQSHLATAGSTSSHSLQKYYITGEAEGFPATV

Prothrombin = Prothrombin (Homo sapiens, UniProt P00734); assay type: functional
[1] = target: Vascular endothelial growth factor receptor 2 (Homo sapiens, UniProt P35968); assay type: functional
[2] = target: cGMP-inhibited 3',5'-cyclic phosphodiesterase 3A (Homo sapiens, UniProt Q14432); assay type: functional
[3] = target: 3',5'-cyclic-AMP phosphodiesterase 4A (Homo sapiens, UniProt P27815); assay type: functional
Progesterone receptor = target: T4, Progesterone receptor (Homo sapiens, UniProt P06401)
T4 sequence (P06401 whole entry): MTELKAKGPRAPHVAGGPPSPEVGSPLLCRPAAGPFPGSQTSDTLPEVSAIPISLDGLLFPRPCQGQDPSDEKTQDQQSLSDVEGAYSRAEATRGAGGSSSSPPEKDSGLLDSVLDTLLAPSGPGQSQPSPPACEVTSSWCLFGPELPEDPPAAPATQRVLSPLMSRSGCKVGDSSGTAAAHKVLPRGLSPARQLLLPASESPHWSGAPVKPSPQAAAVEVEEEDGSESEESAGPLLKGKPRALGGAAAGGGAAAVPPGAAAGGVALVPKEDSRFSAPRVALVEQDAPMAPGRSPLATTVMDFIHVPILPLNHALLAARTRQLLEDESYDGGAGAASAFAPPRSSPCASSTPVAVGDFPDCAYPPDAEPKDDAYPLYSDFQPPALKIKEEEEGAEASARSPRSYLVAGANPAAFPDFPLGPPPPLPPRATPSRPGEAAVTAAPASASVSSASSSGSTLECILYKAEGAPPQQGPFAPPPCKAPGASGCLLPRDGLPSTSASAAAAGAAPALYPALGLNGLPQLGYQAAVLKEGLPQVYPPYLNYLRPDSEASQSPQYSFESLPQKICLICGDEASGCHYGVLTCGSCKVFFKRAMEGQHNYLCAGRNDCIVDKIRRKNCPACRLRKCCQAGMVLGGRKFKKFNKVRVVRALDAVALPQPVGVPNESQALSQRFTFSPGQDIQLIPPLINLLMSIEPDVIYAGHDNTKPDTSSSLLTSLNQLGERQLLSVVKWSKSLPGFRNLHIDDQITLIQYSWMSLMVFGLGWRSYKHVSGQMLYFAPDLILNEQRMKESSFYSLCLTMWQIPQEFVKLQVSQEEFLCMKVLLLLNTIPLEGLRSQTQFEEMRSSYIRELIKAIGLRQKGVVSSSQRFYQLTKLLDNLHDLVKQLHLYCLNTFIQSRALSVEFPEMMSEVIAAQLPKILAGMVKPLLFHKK

[4] = target: T5, Prostaglandin G/H synthase 1 (Homo sapiens, UniProt P23219); assay type: functional
[5] = target: T5, Prostaglandin G/H synthase 1; assay type: functional; remark: listed apart in the source
Thromboxane A2 receptor [6] = target: T6, Thromboxane A2 receptor (Homo sapiens, UniProt P21731); assay type: functional, cell-based
T6 sequence (P21731 whole entry): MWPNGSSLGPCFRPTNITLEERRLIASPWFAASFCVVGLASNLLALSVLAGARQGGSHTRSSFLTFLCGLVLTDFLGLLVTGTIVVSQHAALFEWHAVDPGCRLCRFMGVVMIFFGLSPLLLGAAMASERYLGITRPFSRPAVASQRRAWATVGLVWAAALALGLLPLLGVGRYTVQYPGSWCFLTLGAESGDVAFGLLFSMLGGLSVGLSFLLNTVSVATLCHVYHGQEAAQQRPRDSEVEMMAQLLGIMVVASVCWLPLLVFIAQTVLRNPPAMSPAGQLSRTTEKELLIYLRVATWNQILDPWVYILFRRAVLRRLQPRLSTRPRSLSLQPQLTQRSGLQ

Thromboxane A2 receptor [7] = target: T6, Thromboxane A2 receptor; assay type: functional, cell-based; remark: listed apart in the source
D(4) dopamine receptor = target: T7, D(4) dopamine receptor (Homo sapiens, UniProt P21917)
T7 sequence (P21917 whole entry): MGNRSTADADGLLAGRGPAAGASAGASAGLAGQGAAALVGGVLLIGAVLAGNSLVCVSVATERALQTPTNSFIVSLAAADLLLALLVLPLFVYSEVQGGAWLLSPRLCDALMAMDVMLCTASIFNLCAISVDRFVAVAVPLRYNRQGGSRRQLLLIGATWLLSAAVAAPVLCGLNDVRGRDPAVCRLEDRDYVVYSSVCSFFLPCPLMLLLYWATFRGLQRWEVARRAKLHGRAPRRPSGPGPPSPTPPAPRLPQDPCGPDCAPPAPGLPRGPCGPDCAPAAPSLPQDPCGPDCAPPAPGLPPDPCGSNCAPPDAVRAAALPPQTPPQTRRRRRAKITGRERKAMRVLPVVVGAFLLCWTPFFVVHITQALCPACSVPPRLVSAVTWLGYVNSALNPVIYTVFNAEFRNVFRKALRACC

[8] = target: Voltage-gated inwardly rectifying potassium channel KCNH2 (Homo sapiens, UniProt Q12809); assay type: functional; details: read-out: AC50
Note: assay procedure not described here.

T5 sequence (P23219 whole entry): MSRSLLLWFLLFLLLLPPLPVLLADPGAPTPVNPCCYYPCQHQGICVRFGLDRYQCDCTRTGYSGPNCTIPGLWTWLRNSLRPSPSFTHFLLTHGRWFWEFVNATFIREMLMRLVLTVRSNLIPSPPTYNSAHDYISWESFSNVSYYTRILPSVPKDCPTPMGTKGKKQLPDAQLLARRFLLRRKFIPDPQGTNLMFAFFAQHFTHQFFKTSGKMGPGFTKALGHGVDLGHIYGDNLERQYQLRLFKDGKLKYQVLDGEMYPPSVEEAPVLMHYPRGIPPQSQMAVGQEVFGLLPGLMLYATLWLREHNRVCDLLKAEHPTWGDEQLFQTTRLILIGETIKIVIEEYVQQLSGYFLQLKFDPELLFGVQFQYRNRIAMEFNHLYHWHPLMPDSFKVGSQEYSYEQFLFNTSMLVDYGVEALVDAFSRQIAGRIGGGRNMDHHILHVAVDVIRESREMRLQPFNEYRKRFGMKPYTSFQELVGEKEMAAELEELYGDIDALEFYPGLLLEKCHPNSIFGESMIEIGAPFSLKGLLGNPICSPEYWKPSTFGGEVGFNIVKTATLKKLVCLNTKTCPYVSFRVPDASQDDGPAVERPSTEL
Sequence of Acetylcholinesterase (P22303 whole entry): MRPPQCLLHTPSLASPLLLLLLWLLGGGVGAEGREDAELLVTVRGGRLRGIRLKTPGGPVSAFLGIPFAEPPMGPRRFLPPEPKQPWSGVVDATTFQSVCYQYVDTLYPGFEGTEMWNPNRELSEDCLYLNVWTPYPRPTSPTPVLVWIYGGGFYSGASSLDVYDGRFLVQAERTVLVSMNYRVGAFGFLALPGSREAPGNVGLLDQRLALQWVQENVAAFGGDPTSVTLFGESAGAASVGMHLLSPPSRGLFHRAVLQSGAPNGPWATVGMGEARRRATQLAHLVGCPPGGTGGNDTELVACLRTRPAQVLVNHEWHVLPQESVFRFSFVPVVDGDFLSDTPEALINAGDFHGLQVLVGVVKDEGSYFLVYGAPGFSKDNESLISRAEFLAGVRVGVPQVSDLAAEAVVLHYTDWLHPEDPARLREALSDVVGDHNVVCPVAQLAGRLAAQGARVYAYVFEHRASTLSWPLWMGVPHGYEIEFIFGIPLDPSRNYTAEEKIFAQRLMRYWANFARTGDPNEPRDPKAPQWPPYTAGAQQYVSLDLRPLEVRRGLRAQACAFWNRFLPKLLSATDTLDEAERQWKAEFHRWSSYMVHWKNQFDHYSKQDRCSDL
Sequence of 3',5'-cyclic-AMP phosphodiesterase 4A (P27815 whole entry): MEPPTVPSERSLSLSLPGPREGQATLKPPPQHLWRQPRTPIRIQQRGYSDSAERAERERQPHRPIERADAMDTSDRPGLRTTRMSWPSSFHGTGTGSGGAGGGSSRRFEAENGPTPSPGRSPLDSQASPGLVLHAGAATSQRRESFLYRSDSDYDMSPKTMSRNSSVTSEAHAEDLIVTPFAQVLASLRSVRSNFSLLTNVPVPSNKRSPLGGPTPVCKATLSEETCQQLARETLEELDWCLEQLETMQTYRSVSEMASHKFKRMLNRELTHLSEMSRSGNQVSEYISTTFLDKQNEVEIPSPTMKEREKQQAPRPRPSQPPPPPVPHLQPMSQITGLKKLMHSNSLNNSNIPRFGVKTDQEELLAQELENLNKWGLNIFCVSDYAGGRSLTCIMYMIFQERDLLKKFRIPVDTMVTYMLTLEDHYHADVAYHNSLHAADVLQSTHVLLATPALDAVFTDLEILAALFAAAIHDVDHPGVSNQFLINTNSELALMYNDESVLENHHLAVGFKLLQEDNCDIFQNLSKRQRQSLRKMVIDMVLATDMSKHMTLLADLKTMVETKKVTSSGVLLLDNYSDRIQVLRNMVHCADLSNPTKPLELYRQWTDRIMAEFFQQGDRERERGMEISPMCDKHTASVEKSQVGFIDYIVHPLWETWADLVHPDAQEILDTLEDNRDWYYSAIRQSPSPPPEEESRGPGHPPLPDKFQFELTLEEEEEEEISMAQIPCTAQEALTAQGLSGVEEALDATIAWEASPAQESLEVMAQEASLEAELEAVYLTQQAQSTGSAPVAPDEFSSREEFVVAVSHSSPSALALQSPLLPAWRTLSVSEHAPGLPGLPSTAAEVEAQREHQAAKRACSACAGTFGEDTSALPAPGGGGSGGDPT
Sequence of Vascular endothelial growth factor receptor 2 (P35968 whole entry): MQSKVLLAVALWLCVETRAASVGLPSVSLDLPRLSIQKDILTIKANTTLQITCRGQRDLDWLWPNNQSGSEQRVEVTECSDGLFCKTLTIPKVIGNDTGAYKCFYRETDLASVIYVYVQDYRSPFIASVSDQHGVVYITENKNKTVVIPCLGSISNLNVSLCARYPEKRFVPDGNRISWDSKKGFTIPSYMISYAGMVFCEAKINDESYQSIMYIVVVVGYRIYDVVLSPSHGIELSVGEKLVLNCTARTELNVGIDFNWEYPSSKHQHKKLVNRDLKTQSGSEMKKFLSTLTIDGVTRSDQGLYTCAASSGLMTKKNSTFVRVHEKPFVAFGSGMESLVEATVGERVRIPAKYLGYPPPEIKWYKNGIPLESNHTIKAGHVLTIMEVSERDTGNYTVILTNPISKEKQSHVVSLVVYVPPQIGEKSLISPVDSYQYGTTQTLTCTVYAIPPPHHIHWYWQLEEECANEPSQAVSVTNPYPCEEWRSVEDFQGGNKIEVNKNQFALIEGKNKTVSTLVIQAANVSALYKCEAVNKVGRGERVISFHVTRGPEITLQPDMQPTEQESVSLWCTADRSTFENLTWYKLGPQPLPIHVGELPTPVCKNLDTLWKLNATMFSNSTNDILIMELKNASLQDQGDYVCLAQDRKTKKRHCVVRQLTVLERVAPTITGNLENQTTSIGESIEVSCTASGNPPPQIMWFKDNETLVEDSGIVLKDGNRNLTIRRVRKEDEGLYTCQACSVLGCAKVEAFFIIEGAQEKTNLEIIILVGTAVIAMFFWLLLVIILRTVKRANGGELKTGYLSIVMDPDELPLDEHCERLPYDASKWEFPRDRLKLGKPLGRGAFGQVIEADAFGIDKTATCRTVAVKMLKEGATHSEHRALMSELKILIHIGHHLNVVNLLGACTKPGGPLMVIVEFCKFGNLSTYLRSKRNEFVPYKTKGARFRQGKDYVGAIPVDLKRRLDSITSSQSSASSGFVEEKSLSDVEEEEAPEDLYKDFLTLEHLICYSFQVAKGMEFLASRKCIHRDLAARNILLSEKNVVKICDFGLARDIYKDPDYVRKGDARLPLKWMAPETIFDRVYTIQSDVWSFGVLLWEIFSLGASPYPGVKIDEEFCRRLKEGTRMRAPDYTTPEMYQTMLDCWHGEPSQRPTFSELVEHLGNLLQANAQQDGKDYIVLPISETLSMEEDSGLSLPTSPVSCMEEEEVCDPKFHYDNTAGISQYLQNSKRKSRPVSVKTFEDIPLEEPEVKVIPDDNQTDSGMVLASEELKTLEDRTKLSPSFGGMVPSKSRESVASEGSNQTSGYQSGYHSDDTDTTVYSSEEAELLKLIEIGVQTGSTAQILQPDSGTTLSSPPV
Sequence of Voltage-gated inwardly rectifying potassium channel KCNH2 (Q12809 whole entry): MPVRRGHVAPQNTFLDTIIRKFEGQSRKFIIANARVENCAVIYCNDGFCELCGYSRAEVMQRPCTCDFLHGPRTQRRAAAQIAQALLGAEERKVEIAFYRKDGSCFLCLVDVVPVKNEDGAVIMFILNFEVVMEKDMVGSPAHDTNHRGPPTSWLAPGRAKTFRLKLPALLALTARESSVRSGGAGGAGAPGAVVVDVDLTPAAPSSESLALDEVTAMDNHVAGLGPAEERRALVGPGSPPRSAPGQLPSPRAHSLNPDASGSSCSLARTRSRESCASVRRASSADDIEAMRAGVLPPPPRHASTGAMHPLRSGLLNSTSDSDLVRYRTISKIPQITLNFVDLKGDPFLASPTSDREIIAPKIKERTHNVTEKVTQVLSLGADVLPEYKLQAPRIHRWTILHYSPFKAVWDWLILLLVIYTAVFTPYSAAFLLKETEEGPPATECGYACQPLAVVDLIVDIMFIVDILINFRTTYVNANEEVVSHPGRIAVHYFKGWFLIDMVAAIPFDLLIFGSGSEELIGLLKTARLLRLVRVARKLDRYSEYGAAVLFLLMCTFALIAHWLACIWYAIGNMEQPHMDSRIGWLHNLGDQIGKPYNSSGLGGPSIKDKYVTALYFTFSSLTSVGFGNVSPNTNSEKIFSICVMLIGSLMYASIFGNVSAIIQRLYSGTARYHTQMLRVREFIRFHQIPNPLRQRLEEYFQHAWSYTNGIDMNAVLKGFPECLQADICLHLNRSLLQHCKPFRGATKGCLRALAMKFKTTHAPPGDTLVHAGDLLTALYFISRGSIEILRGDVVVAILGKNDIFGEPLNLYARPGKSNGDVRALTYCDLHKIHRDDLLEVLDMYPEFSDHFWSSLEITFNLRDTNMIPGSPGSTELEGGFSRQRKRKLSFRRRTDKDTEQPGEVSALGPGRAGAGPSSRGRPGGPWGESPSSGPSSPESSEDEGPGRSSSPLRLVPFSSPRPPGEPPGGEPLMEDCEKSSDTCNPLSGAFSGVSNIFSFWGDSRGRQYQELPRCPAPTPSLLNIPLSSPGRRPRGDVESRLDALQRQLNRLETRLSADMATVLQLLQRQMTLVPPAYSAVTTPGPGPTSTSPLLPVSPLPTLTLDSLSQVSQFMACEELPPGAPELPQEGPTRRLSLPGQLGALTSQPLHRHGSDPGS

| SMILES | AC50 (Acetylcholinesterase) [µM] | AC50 (Adenosine receptor A1) [µM] | AC50 (Adenosine receptor A3) [µM] | AC50 (Estrogen receptor) [µM] | AC50 (Prothrombin) [µM] | AC50 [1] [µM] | AC50 [2] [µM] | AC50 [3] [µM] | AC50 (Progesterone receptor) [µM] | AC50 [4] [µM] | AC50 [5] [µM] | AC50 (Thromboxane A2 receptor [6]) [µM] | AC50 (Thromboxane A2 receptor [7]) [µM] | AC50 (D(4) dopamine receptor) [µM] | AC50 [8] [µM] |
| --- | --- | --- | --- | --- | --- | --- | --- | --- | --- | --- | --- | --- | --- | --- | --- |
| C=CC[C@]1(O)CC[C@H]2[C@@H]3CCC4=CCCC[C@@H]4[C@H]3CC[C@@]21C [ALLYLESTRENOL] | > 30 | > 30 | 3.91 | 0.331 | > 30 | > 30 | > 30 | > 30 | 0.0039 | 25.5 | > 30 | > 30 | > 30 | – | – |
| COC(=O)[C@@H]1[C@H]2C[C@H]3c4[nH]c5ccccc5c4CCN3C[C@@H]2CC[C@@H]1O [YOHIMBINE] | > 0.3 | – | – | – | – | – | – | – | – | – | – | – | – | > 10 | 29.1 |
